PubChem BioAssay (NCI)
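Exposure lasted 48 hours, with cells grown in 96-well plates and compounds tested at five concentrations. At the GI50, growth is halved. TGI marks complete inhibition of growth.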

What was measured:
Experiment in all cases: DTP human tumour cell line panel, 48 h
[1] = test system: A498 renal
[2] = test system: SF-268 CNS
[3] = test system: SNB-19 CNS
[4] = test system: OVCAR-4 ovarian
[5] = test system: ACHN renal
[6] = test system: COLO 205 colon
[7] = test system: UACC-62 melanoma
[8] = test system: RXF 393 renal
[9] = test system: EKVX NSCLC
[10] = test system: OVCAR-3 ovarian
[11] = test system: SK-MEL-5 melanoma
[12] = test system: HOP-62 NSCLC
[13] = test system: HOP-92 NSCLC
[14] = test system: MALME-3M melanoma
[15] = test system: UO-31 renal
[16] = test system: HS 578T breast
[17] = test system: IGROV1 ovarian
[18] = test system: A549 NSCLC
[19] = test system: SN12C renal
[20] = test system: PC-3 prostate
[21] = test system: HL-60(TB) leukemia
[22] = test system: OVCAR-5 ovarian
[23] = test system: UACC-257 melanoma
[24] = test system: SK-OV-3 ovarian
[25] = test system: RPMI-8226 leukemia
[26] = test system: HT29 colon
[27] = test system: HCT-116 colon
[28] = test system: CAKI-1 renal
[29] = test system: HCC-2998 colon
[30] = test system: SW-620 colon
[31] = test system: SK-MEL-28 melanoma
[32] = test system: NCI-H522 lung
[33] = test system: HCT-15 colon
[34] = test system: LOX IMVI melanoma
[35] = test system: SNB-75 CNS
[36] = test system: T-47D breast
[37] = test system: MCF7 breast
[38] = test system: 786-0 renal
[39] = test system: NCI/ADR-RES ovarian
[40] = test system: U251 CNS
[41] = test system: M14 melanoma
[42] = test system: TK-10 renal
[43] = test system: DU-145 prostate
[44] = test system: KM12 colon
[45] = test system: BT-549 breast
[46] = test system: MOLT-4 leukemia
[47] = test system: SF-295 CNS
[48] = test system: MDA-MB-231 breast
[49] = test system: OVCAR-8 ovarian
[50] = test system: MDA-MB-435
[51] = test system: SF-539 CNS
[52] = test system: NCI-H226 lung
[53] = test system: NCI-H460 lung
[54] = test system: NCI-H23 lung
[55] = test system: SK-MEL-2 melanoma
[56] = test system: CCRF-CEM leukemia

FC(F)(F)c1cc(Nc2cccc(Oc3ccc(NC4=NCCN4)nc3)c2)ccc1Cl
GI50 [1]: 2310 nM | TGI [1]: 9.85 µM | GI50 [2]: 4.14 µM | TGI [2]: 17.9 µM | GI50 [3]: 2740 nM | TGI [3]: 8.64 µM | GI50 [4]: 2750 nM | TGI [4]: 11 µM | GI50 [5]: 2910 nM | TGI [5]: 8.66 µM | GI50 [6]: 1870 nM | TGI [6]: 3.96 µM | GI50 [7]: 2590 nM | TGI [7]: 6.89 µM | GI50 [8]: 2050 nM | TGI [8]: 4.94 µM | GI50 [9]: 2070 nM | TGI [9]: 5.45 µM | GI50 [10]: 2500 nM | TGI [10]: 6.33 µM | GI50 [11]: 1800 nM | TGI [11]: 3.24 µM | GI50 [12]: 2220 nM | TGI [12]: 6.1 µM | GI50 [13]: 1420 nM | TGI [13]: 5.29 µM | GI50 [14]: 2810 nM | TGI [14]: 9.7 µM | GI50 [15]: 2190 nM | TGI [15]: 8.61 µM | GI50 [16]: 1980 nM | TGI [16]: 4.63 µM | GI50 [17]: 1830 nM | TGI [17]: 4.22 µM | GI50 [18]: 2350 nM | TGI [18]: 6.31 µM | GI50 [19]: 1870 nM | TGI [19]: 3.82 µM | GI50 [20]: 1920 nM | TGI [20]: 3.73 µM | GI50 [21]: 2110 nM | TGI [21]: 5.53 µM | GI50 [22]: 2490 nM | TGI [22]: 6.81 µM | GI50 [23]: 3.09 µM | TGI [23]: 9.59 µM | GI50 [24]: 14.8 µM | TGI [24]: 32 µM | GI50 [25]: 2030 nM | TGI [25]: 5.24 µM | GI50 [26]: 2050 nM | TGI [26]: 5.07 µM | GI50 [27]: 1730 nM | TGI [27]: 3.19 µM | GI50 [28]: 2760 nM | TGI [28]: 11.3 µM | GI50 [29]: 1980 nM | TGI [29]: 3.65 µM | GI50 [30]: 1760 nM | TGI [30]: 3.65 µM | GI50 [31]: 1940 nM | TGI [31]: 3.89 µM | GI50 [32]: 1930 nM | TGI [32]: 4.36 µM | GI50 [33]: 1660 nM | TGI [33]: 3.32 µM | GI50 [34]: 1740 nM | TGI [34]: 3.19 µM | GI50 [35]: 1960 nM | TGI [35]: 8.29 µM | GI50 [36]: 2790 nM | TGI [36]: 11.3 µM | GI50 [37]: 1740 nM | TGI [37]: 3.69 µM | GI50 [38]: 1760 nM | TGI [38]: 3.58 µM | GI50 [39]: 2050 nM | TGI [39]: 4.52 µM | GI50 [40]: 2090 nM | TGI [40]: 4.75 µM | GI50 [41]: 1730 nM | TGI [41]: 3.46 µM | GI50 [42]: 3.97 µM | TGI [42]: 16.1 µM | GI50 [43]: 2090 nM | TGI [43]: 4.44 µM | GI50 [44]: 2020 nM | TGI [44]: 4.47 µM | GI50 [45]: 3.91 µM | TGI [45]: 16.9 µM | GI50 [46]: 3.2 µM | TGI [46]: 14.2 µM | GI50 [47]: 1730 nM | TGI [47]: 3.37 µM | GI50 [48]: 2180 nM | TGI [48]: 5.02 µM | GI50 [49]: 2490 nM | TGI [49]: 6.73 µM | GI50 [50]: 1660 nM | TGI [50]: 3.3 µM | GI50 [51]: 2070 nM | TGI [51]: 4.57 µM | GI50 [52]: 2060 nM | TGI [52]: 5.34 µM | GI50 [53]: 1980 nM | TGI [53]: 3.95 µM | GI50 [54]: 2530 nM | TGI [54]: 7.6 µM | GI50 [55]: 2620 nM | TGI [55]: 6.99 µM | GI50 [56]: 2800 nM | TGI [56]: 14.6 µM
